Test results published in EP3597653A1, “CYCLIC INHIBITORS OF HEPATITIS B VIRUS” (IRBM S.P.A., priority 2018, dated 2020).

System: HBV
Assay: HBV inhibition assay in HepAD38 cells (extracellular HBV DNA by direct qPCR)
Format: cell-based
Conditions: Hepatitis B virus, 8-point dose-response curve, 96 hours, read-out: HBV inh EC50
Excerpt: HepAD38 cell line (Ladner et al., Antimicrob Agents Chemother, 1997, 41, 1715-20) was used for HBV inhibition assays. HepAD38 is a subclone, derived from Hepatoblastoma cell line HepG2 (ATCC® Number: HB-8065™), that expresses HBV genome under the control of a tetracycline-responsive promoter in a TET-OFF system: addition of tetracycline suppresses HBV replication, while its removal switches on the process allowing HBV viral particles release in the cell supernatant. HepAD38 cell line is maintained in DMEM/F12, supplemented with 10% of fetal bovine serum, 1% of glutamine, 1% of penicillin/streptomycin, 0.4 mg/ml G418 and 0,3 ug/ml tetracycline. For the HBV inhibition assay, doxycycline-free medium is used in order to allow virion production.
HBV inhibition activity in vitro was performed in 96 multiwell plates. During the initial (primary) screening compounds were first tested in triplicates at concentrations of 0.1µM, 0.5µM amd 1µM. For selected compounds, an 8-point dose-response curve can be obtained using 1:2 serial dilutions (starting from 2.5 µM, 1.25µM or 0.4 µM, depending on the degree of inhibition observed during the primary screening). From the dose-response curves, half maximal effective concentration (EC50) can be calculated (see also below).
In more detail, compounds - typically dissolved in DMSO stock solutions - are diluted to 2x the final desired concentration in 100 µl of the above medium (without doxycycline) and plated in three replicates in the 96-well plates.
Simultaneously, HepAD38 cells - extensively pre-washed in tetracycline-free medium in order to induce HBV production - are suspended at 2*10^4 cells in 100 µl of tetracycline-free medium and added to each well of the plate, to yield a final assay volume of 200 µl DMSO - used for stock solutions and compounds dilutions - which is always present in the assays at a final concentration of 0.5%.
Plates are then incubated 96 hours at 37°C and then subjected to cell viability assay in order to define compounds cytotoxicity and to extracellular HBV quantification in order to evaluate antiviral activity of compounds. Cytotoxicity is assessed by a commercial fluorescence assay that measures the metabolic activity of cells, directly related to cell viability (Cell Titer Blue, Promega). Anti-HBV activity was evaluated by quantification of extracellular HBV DNA with direct qPCR. In particular, supernatant was collected and centrifuged for cell debris clarification, viral DNA was extracted from virions by addition of lysis buffer (1 mM 1,4-dithiothreitol, 0.2% sodium dodecyl sulphate) and incubated at 95°C for 10 min. Samples were then diluted 1:40 and real time PCR amplification was performed with SYBR green assay (Power SYBR™ Green PCR Master Mix-Thermo Fisher Scientific) and specific HBV primer (HBV-DF:5'-[…]-3' (SEQ ID No. 1), HBV-DR:5'-[…]-3' (SEQ ID No. 2)).
All HBV inhibition or antiviral activity data are typically reported in percent (%) relative to a non-treated reference sample. Excel and Graphpad Prism programs are typically used for data elaboration and EC50 calculation.

| SMILES | EC50 [nM] |
| --- | --- |
| O=C(Nc1cc(F)c(F)c(F)c1)c1ccc2c(c1)S(=O)(=O)NC(C1CCNCC1)N2 (stereo not shown) [Example E32, 3-(piperidin-4-yl)-N-(3,4,5-trifluorophenyl)-3,4-dihydro-2H-benzo[e][1,2,4]thiadiazine-7-carboxamide 1,1-dioxide] | < 1000 |
| O=C(Nc1cc(F)c(F)c(F)c1)c1ccc2c(c1)S(=O)(=O)NC(c1c(F)cccc1F)N2 (stereo not shown) [Example E35, 3-(2,6-difluorophenyl)-N-(3,4,5-trifluorophenyl)-3,4-dihydro-2H-benzo[e][1,2,4]thiadiazine-7-carboxamide 1,1-dioxide] | < 1000 |
| Cn1cncc1C1Nc2ccc(C(=O)Nc3cc(F)c(F)c(F)c3)cc2S(=O)(=O)N1 (stereo not shown) [Example E37, 3-(1-methyl-1H-imidazol-5-yl)-N-(3,4,5-trifluorophenyl)-3,4-dihydro-2H-benzo[e][1,2,4]thiadiazine-7-carboxamide 1,1-dioxide] | < 1000 |

Same assay, conditions: Hepatitis B virus, compound at 0.5 µM, 96 hours, relative to non-treated reference, read-out: Anti HBV Activity (conc µM)

| SMILES | inhibition at 0.5 µM [%] |
| --- | --- |
| C[C@@H](O)C1Nc2ccc(C(=O)Nc3cc(F)c(F)c(F)c3)cc2S(=O)(=O)N1 (stereo partly drawn) [Example E24, 3-((R)-1-hydroxyethyl)-N-(3,4,5-trifluorophenyl)-3,4-dihydro-2H-benzo[e][1,2,4]thiadiazine-7-carboxamide 1,1-dioxide] | > 50 |
| C[C@H](O)C1=NS(=O)(=O)c2cc(C(=O)Nc3cc(F)c(F)c(F)c3)ccc2N1 [Example E25, (S)-3-(1-hydroxyethyl)-N-(3,4,5-trifluorophenyl)-4H-benzo[e][1,2,4]thiadiazine-7-carboxamide1,1-dioxide] | < 50 |
| O=C(Nc1cc(F)c(F)c(F)c1)c1ccc2c(c1)S(=O)(=O)NC([C@@H](O)CO)N2 (stereo partly drawn) [Example E26, 3-((R)-1,2-dihydroxyethyl)-N-(3,4,5-trifluorophenyl)-3,4-dihydro-2H-benzo[e][1,2,4]thiadiazine-7-carboxamide 1,1-dioxide] | > 50 |
| CC1(C)Nc2ccc(C(=O)Nc3cc(F)c(F)c(F)c3)cc2S(=O)(=O)N1 [Example E27, 3,3-dimethyl-N-(3,4,5-trifluorophenyl)-3,4-dihydro-2H-benzo[e][1,2,4]thiadiazine-7-carboxamide 1,1-dioxide] | > 50 |
| O=C(Nc1cc(F)c(F)c(F)c1)c1ccc2c(c1)S(=O)(=O)NC(CO)N2 (stereo not shown) [Example E28, 3-(hydroxymethyl)-N-(3,4,5-trifluorophenyl)-3,4-dihydro-2H-benzo[e][1,2,4]thiadiazine-7-carboxamide 1,1-dioxide] | > 50 |
| CN1C(C2CCNCC2)Nc2ccc(C(=O)Nc3cc(F)c(F)c(F)c3)cc2S1(=O)=O (stereo not shown) [Example E33, 2-methyl-3-(piperidin-4-yl)-N-(3,4,5-trifluorophenyl)-3,4-dihydro-2H-benzo[e][1,2,4]thiadiazine-7-carboxamide 1,1-dioxide] | < 50 |

Same assay, conditions: Hepatitis B virus, compound at 1 µM, 96 hours, relative to non-treated reference, read-out: Anti HBV Activity (conc µM)

| SMILES | inhibition at 1 µM [%] |
| --- | --- |
| NCC1Nc2ccc(C(=O)Nc3cc(F)c(F)c(F)c3)cc2S(=O)(=O)N1 (stereo not shown) [Example E29, 3-(aminomethyl)-N-(3,4,5-trifluorophenyl)-3,4-dihydro-2H-benzo[e][1,2,4]thiadiazine-7-carboxamide 1,1-dioxide] | > 50 |
| CC(=O)NCC1Nc2ccc(C(=O)Nc3cc(F)c(F)c(F)c3)cc2S(=O)(=O)N1 (stereo not shown) [Example E30, 3-(acetamidomethyl)-N-(3,4,5-trifluorophenyl)-3,4-dihydro-2H-benzo[e][1,2,4]thiadiazine-7-carboxamide 1,1-dioxide] | > 50 |
| CC(C)(C)OC(=O)N1CCC(C2Nc3ccc(C(=O)Nc4cc(F)c(F)c(F)c4)cc3S(=O)(=O)N2)CC1 (stereo not shown) [Example E31, tert-butyl 4-(1,1-dioxido-7-((3,4,5-trifluorophenyl)carbamoyl)-3,4-dihydro-2H-benzo[e] [1,2,4]thiadiazin-3-yl)piperidine-1-carboxylate] | > 50 |
| O=C(Nc1cc(F)c(F)c(F)c1)c1cc2c(cc1Cl)NC1(CCC1)NS2(=O)=O [Example E34, 6-chloro-N-(3,4,5-trifluorophenyl)-2H,4H-spiro[benzo[e] [1,2,4]thiadiazine-3,1'-cyclobutane]-7-carboxamide 1,1-dioxide] | < 50 |
| O=C(Nc1cc(F)c(F)c(F)c1)c1cc2c(cc1Cl)NC(c1nccs1)NS2(=O)=O (stereo not shown) [Example E36, 6-chloro-3-(thiazol-2-yl)-N-(3,4,5-trifluorophenyl)-3,4-dihydro-2H-benzo[e][1,2,4]thiadiazine-7-carboxamide 1,1-dioxide] | > 50 |
| Cc1nc(C)c(C2Nc3ccc(C(=O)Nc4ccc(F)c(F)c4)cc3S(=O)(=O)N2)o1 (stereo not shown) [Example E38, N-(3,4-difluorophenyl)-3-(2,4-dimethyloxazol-5-yl)-3,4-dihydro-2H-benzo[e][1,2,4]thiadiazine-7-carboxamide 1,1-dioxide] | > 50 |
| CC1(c2ccncc2)Nc2ccc(C(=O)Nc3cc(F)c(F)c(F)c3)cc2S(=O)(=O)N1 (stereo not shown) [Example E39, 3-methyl-3-(pyridin-4-yl)-N-(3,4,5-trifluorophenyl)-3,4-dihydro-2H-benzo[e][1,2,4]thiadiazine-7-carboxamide 1,1-dioxide] | > 50 |
| O=C(Nc1cc(F)c(F)c(F)c1)c1ccc2c(c1)S(=O)(=O)NC(c1cncs1)N2 (stereo not shown) [Example E40, 3-(thiazol-5-yl)-N-(3,4,5-trifluorophenyl)-3,4-dihydro-2H-benzo[e][1,2,4]thiadiazine-7-carboxamide 1,1-dioxide] | > 50 |
| O=C(Nc1cc(F)c(F)c(F)c1)c1ccc2c(c1)S(=O)(=O)NC(c1cscn1)N2 (stereo not shown) [Example E41, 3-(thiazol-4-yl)-N-(3,4,5-trifluorophenyl)-3,4-dihydro-2H-benzo[e][1,2,4]thiadiazine-7-carboxamide 1,1-dioxide] | > 50 |
| O=C(Nc1cc(F)c(F)c(F)c1)c1ccc2c(c1)S(=O)(=O)NC(c1ccc(C(F)(F)F)nc1)N2 (stereo not shown) [Example E42, 3-(6-(trifluoromethyl)pyridin-3-yl)-N-(3,4,5-trifluorophenyl)-3,4-dihydro-2H-benzo[e][1,2,4]thiadiazine-7-carboxamide 1,1-dioxide] | > 50 |
| O=C(Nc1cc(F)c(F)c(F)c1)c1ccc2c(c1)S(=O)(=O)NC(c1cccs1)N2 (stereo not shown) [Example E43, 3-(thiophen-2-yl)-N-(3,4,5-trifluorophenyl)-3,4-dihydro-2H-benzo[e][1,2,4]thiadiazine-7-carboxamide 1,1-dioxide] | > 50 |
| O=C(Nc1cc(F)c(F)c(F)c1)c1ccc2c(c1)S(=O)(=O)NC(c1ccccn1)N2 (stereo not shown) [Example E44, 3-(pyridin-2-yl)-N-(3,4,5-trifluorophenyl)-3,4-dihydro-2H-benzo[e][1,2,4]thiadiazine-7-carboxamide 1,1-dioxide] | > 50 |
| O=C(Nc1cc(F)c(F)c(F)c1)c1ccc2c(c1)S(=O)(=O)NC(c1cnns1)N2 (stereo not shown) [Example E45, 3-(1,2,3-thiadiazol-5-yl)-N-(3,4,5-trifluorophenyl)-3,4-dihydro-2H-benzo[e][1,2,4]thiadiazine-7-carboxamide 1,1-dioxide] | > 50 |
| O=C(Nc1cc(F)c(F)c(F)c1)c1ccc2c(c1)S(=O)(=O)NC(c1ccn[nH]1)N2 (stereo not shown) [Example E46, 3-(1H-pyrazol-5-yl)-N-(3,4,5-trifluorophenyl)-3,4-dihydro-2H-benzo[e][1,2,4]thiadiazine-7-carboxamide 1,1-dioxide] | > 50 |
| O=C(Nc1ccc(F)c(F)c1)c1ccc2c(c1)S(=O)(=O)NC(c1cccnc1)N2 (stereo not shown) [Example E47, N-(3,4-difluorophenyl)-3-(pyridin-3-yl)-3,4-dihydro-2H-benzo[e][1,2,4]thiadiazine-7-carboxamide 1,1-dioxide] | > 50 |
| O=C(Nc1cc(F)c(F)c(F)c1)c1ccc2c(c1)S(=O)(=O)NC(c1cccnc1)N2 (stereo not shown) [Example E48, 3-(pyridin-3-yl)-N-(3,4,5-trifluorophenyl)-3,4-dihydro-2H-benzo[e][1,2,4]thiadiazine-7-carboxamide 1,1-dioxide] | > 50 |
